Experimental data published in patent US20240317777A1, “NOVEL MACROCYCLIC AMINOPYRAZOLE COMPOUNDS AS CDK2 INHIBITORS” (Accutar Biotechnology Inc., priority 2023, published 2024).
Read-outs that look alike come from different tables or passages of the source.

Tests used:
[1] = tested on: Phospho-Rb (Ser807/811) in OVCAR3 cells; test: Phospho-Rb expression inhibition in OVCAR3 cells quantified by In Cell Western; type: cell-based; settings: Homo sapiens, OVCAR-3, 24 hours, read-out: OVCAR-3 pRb IC50
In short: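 In-cell western: after 24 h compound exposure at 37° C, fixed OVCAR3 cells co-stained for pRb Ser807/811 (800 nm channel) and total Rb (680 nm channel), imaged by LI-COR Odyssey.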

CCNE1-normal SKOV3 cells = test: Cell growth inhibition of CCNE1-normal SKOV3 cells (CellTiter-Glo); type: cell-based; settings: Homo sapiens, SK-OV-3, 144 h, 6 days
In short: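 Growth was measured by CellTiter-Glo luminescence after 6 days' compound exposure at 37 °C. Cells were plated one day before dosing at 1000 per well in medium with 10% FBS, and compounds were diluted from DMSO stocks.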

CDK2-CYCLIN E1 = CDK2-CYCLIN E1 (Homo sapiens, UniProt P24941); test: CDK protein kinase inhibition by ADP-Glo assay, CDK2-CYCLIN E1; type: biochemical; settings: read-out: CDK2-CYCLINE, IC50
In short: (§1)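 Human CDK/cyclin complexes with peptide substrate, 1000 μM ATP, 5 mM MgCl2 in 100 mM HEPES pH 7.5, 0.1% BSA, 0.01% Triton X-100, 1 mM DTT, 1% DMSO, incubated at 22° C. ADP formed was detected by ADP-Glo luminescence after quench.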

CDK6-CYCLIN D3 = CDK6-CYCLIN D3 (Homo sapiens, UniProt Q00534); test: CDK protein kinase inhibition by ADP-Glo assay, CDK6-CYCLIN D3; type: biochemical; settings: for IC50: read-out: CDK6-CYCLIND3, IC50; for CDK2 Fold selectivity, CDK6: CDK2 versus CDK6
In short: as §1

CDK1-CYCLIN B = CDK1-CYCLIN B (Homo sapiens, UniProt P06493); test: CDK protein kinase inhibition by ADP-Glo assay, CDK1-CYCLIN B; type: biochemical; settings: for IC50: read-out: CDK1-CYCLINB, IC50; for CDK2 Fold selectivity, CDK1: CDK2 versus CDK1
In short: as §1

CDK4-CYCLIN D1 = CDK4-CYCLIN D1 (Homo sapiens, UniProt P11802); test: CDK protein kinase inhibition by ADP-Glo assay, CDK4-CYCLIN D1; type: biochemical; settings: for IC50: read-out: CDK4-CYCLIND1, IC50; for CDK2 Fold selectivity, CDK4: CDK2 versus CDK4
In short: as §1

[2] = tested on: CCNE1-amplified OVCAR3 cells; test: Cell growth inhibition of CCNE1-amplified OVCAR3 cells (CellTiter-Glo); type: cell-based; settings: Homo sapiens, OVCAR-3, 144 h, 6 days
In short: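 Growth read-out was CellTiter-Glo luminescence, taken after 10 min at room temperature at the end of a 6-day compound exposure at 37 °C. Compounds were diluted from DMSO stocks across various concentrations.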

CDK9-CYCLIN T1 = CDK9-CYCLIN T1 (Homo sapiens, UniProt P50750); test: CDK protein kinase inhibition by ADP-Glo assay, CDK9-CYCLIN T1; type: biochemical; settings: for IC50: read-out: CDK9-CYCLINT1, IC50; for CDK2 Fold selectivity, CDK9: CDK2 versus CDK9
In short: as §1

[3] = Table 35, recombinant CDK kinase

Sequence of CDK6-CYCLIN D3 (Q00534 whole entry): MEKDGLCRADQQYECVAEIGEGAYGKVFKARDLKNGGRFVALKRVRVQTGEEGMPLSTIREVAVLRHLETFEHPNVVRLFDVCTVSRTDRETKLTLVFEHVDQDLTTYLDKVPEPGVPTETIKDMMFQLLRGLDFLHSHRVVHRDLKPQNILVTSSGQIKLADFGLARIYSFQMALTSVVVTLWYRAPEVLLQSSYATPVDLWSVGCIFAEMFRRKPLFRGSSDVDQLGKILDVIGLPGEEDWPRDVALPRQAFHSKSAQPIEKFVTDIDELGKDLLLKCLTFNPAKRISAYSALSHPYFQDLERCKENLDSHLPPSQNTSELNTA
Sequence of CDK6-CYCLIN D3 (P30281 whole entry partner): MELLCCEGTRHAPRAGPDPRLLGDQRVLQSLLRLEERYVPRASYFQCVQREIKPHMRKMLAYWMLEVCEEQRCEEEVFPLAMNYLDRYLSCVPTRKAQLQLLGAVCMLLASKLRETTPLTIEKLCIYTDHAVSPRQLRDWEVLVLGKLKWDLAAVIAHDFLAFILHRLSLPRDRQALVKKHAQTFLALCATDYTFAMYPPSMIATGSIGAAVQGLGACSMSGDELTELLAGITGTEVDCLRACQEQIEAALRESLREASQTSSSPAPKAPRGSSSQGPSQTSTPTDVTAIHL
Sequence of CDK1-CYCLIN B (P06493 whole entry): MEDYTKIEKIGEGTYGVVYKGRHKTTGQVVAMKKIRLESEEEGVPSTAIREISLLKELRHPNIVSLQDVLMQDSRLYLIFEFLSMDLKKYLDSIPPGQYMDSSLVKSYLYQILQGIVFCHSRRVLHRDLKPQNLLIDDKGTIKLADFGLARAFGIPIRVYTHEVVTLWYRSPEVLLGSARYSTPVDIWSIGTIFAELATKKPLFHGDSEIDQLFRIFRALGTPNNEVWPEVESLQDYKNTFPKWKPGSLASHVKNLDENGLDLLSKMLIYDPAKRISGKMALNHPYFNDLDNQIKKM
Sequence of CDK1-CYCLIN B (P14635 whole entry partner): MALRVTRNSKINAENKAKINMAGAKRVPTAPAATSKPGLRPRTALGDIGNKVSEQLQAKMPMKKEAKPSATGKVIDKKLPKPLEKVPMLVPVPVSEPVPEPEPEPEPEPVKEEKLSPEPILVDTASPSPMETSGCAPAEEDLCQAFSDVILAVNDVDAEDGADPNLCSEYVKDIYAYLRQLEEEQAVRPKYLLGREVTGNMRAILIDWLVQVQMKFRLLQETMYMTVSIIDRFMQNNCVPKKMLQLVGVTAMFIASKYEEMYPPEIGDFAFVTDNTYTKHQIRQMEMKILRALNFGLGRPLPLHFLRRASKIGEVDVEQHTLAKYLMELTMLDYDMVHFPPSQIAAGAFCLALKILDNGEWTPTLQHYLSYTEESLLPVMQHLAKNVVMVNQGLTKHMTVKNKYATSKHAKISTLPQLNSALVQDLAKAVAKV
Sequence of CDK9-CYCLIN T1 (P50750 whole entry): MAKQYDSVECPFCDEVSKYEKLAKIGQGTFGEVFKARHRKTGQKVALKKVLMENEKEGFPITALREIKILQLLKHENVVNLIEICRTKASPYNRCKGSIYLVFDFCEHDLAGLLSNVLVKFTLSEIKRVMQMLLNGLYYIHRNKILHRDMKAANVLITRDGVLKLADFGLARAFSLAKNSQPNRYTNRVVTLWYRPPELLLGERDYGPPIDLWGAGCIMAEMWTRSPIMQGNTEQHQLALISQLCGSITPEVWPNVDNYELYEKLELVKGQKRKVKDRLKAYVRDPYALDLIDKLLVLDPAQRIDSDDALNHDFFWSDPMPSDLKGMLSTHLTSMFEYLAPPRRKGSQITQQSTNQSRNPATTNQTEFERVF
Sequence of CDK9-CYCLIN T1 (O60563 whole entry partner): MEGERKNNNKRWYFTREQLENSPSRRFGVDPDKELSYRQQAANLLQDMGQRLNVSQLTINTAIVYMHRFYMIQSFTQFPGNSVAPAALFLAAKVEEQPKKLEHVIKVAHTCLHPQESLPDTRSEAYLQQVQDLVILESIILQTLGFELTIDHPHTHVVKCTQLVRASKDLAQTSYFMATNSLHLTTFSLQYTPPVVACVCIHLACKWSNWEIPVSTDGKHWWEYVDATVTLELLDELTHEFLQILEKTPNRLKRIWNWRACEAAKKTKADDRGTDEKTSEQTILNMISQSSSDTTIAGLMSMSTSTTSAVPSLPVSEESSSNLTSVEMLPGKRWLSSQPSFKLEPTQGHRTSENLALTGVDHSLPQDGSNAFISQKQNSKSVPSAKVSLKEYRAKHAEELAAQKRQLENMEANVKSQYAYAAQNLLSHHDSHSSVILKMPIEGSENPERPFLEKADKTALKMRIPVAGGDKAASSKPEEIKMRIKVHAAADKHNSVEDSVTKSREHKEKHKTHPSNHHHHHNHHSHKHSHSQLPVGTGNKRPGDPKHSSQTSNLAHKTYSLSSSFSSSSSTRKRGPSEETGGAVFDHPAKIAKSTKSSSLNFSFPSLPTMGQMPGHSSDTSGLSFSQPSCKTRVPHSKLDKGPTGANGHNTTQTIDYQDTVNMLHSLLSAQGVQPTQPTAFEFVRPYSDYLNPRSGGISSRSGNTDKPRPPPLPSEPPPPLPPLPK
Sequence of CDK4-CYCLIN D1 (P11802 whole entry): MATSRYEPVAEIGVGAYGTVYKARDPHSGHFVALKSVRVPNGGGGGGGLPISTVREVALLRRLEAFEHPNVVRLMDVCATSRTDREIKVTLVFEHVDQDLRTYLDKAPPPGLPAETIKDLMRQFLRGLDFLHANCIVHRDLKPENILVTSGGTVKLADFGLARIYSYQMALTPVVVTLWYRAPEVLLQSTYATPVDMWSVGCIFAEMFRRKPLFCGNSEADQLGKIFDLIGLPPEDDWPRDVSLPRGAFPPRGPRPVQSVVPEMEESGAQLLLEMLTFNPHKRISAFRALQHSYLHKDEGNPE
Sequence of CDK4-CYCLIN D1 (P24385 whole entry partner): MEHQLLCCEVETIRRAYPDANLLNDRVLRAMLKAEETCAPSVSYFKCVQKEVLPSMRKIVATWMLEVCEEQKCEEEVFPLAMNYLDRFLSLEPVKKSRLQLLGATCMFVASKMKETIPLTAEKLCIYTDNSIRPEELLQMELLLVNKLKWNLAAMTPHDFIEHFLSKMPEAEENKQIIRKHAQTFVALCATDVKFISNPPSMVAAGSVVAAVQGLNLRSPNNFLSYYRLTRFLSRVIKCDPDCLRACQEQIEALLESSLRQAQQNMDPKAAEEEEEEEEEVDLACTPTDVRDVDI

O=C1NC23CC(C/C=C/c4cncc(c4)Nc4cc(n[nH]4)[C@H]4CC[C@H](C4)O1)(C2)C3 [Compound 106, (1^1S,1^3R,2^4Z,5E)-2^1H-11-oxa-3,9-diaza-4(3,5)-pyridina-2(3,5)-pyrazola-8(1,3)-bicyclo[1.1.1]pentana-1(1,3)-cyclopentanacycloundecaphan-5-en-10-one]
IC50 [1]: ≤ 2 nM
IC50 (CCNE1-normal SKOV3 cells): 10 to 50 nM
IC50 (CDK2-CYCLIN E1; ADP-Glo, 1000 μM ATP, Table 15): ≤ 10 nM
IC50 (CDK6-CYCLIN D3; ADP-Glo, 1000 μM ATP, Table 15): 10 to 50 nM
CDK2 Fold selectivity, CDK6 (CDK6-CYCLIN D3; Table 16): E (E, <20)
IC50 (CDK1-CYCLIN B; ADP-Glo, 1000 μM ATP, Table 15): ≤ 10 nM
CDK2 Fold selectivity, CDK1 (CDK1-CYCLIN B; Table 16): E (E, <20)
IC50 (CDK4-CYCLIN D1; ADP-Glo, 1000 μM ATP, Table 15): 10 to 50 nM
CDK2 Fold selectivity, CDK4 (CDK4-CYCLIN D1; Table 16): E (E, <20)
IC50 [2]: ≤ 2 nM
IC50 (CDK9-CYCLIN T1; ADP-Glo, 1000 μM ATP, Table 15): ≤ 10 nM
CDK2 Fold selectivity, CDK9 (CDK9-CYCLIN T1; Table 16): E (E, <20)

O=C1NC23CC(C/C=C/c4cc(ccn4)Nc4cc(n[nH]4)[C@H]4CC[C@H](C4)O1)(C2)C3 [Compound 107, (11S,13R,24Z,5E)-21H-11-oxa-3,9-diaza-4(4,2)-pyridina-2(3,5)-pyrazola-8(1,3)-bicyclo[1.1.1]pentana-1(1,3)-cyclopentanacycloundecaphan-5-en-10-one]
IC50 [1]: ≤ 2 nM
IC50 (CCNE1-normal SKOV3 cells): 10 to 50 nM
IC50 (CDK2-CYCLIN E1; ADP-Glo, 1000 μM ATP, Table 17): ≤ 10 nM
IC50 (CDK6-CYCLIN D3; ADP-Glo, 1000 μM ATP, Table 17): 10 to 50 nM
CDK2 Fold selectivity, CDK6 (CDK6-CYCLIN D3; Table 18): E (E, <20)
IC50 (CDK1-CYCLIN B; ADP-Glo, 1000 μM ATP, Table 17): ≤ 10 nM
CDK2 Fold selectivity, CDK1 (CDK1-CYCLIN B; Table 18): E (E, <20)
IC50 (CDK4-CYCLIN D1; ADP-Glo, 1000 μM ATP, Table 17): 10 to 50 nM
CDK2 Fold selectivity, CDK4 (CDK4-CYCLIN D1; Table 18): E (E, <20)
IC50 [2]: ≤ 2 nM
IC50 (CDK9-CYCLIN T1; ADP-Glo, 1000 μM ATP, Table 17): ≤ 10 nM
CDK2 Fold selectivity, CDK9 (CDK9-CYCLIN T1; Table 18): E (E, <20)

O=C1N[C@H]2C[C@H](COc3cc(ccn3)Nc3cc(n[nH]3)[C@H]3CC[C@H](C3)O1)C2 [Compound 108, (1^1S,1^3R,7^1R,7^3S,Z)-2^1H-5,10-dioxa-3,8-diaza-4(4,2)-pyridina-2(3,5)-pyrazola-1(1,3)-cyclopentana-7(1,3)-cyclobutanacyclodecaphan-9-one]
IC50 [1]: 2 to 10 nM
IC50 (CCNE1-normal SKOV3 cells): 250 to 1250 nM
IC50 (CDK2-CYCLIN E1; ADP-Glo, 1000 μM ATP, Table 11): ≤ 10 nM
IC50 (CDK2-CYCLIN E1; [3]): ≤ 10 nM
IC50 (CDK6-CYCLIN D3; ADP-Glo, 1000 μM ATP, Table 11): 100 to 500 nM
CDK2 Fold selectivity, CDK6 (CDK6-CYCLIN D3; Table 12): A (A, ≥500)
IC50 (CDK6-CYCLIN D3; [3]): 50 to 100 nM
CDK2 Fold selectivity against CDK6 (CDK6-CYCLIN D3; Table 36, fold selectivity for CDK2 over CDK6, recombinant CDK kinases): D (D, >20 and ≤50)
IC50 (CDK1-CYCLIN B; ADP-Glo, 1000 μM ATP, Table 11): 10 to 50 nM
CDK2 Fold selectivity, CDK1 (CDK1-CYCLIN B; Table 12): B (B, >100 and ≤500)
IC50 (CDK1-CYCLIN B; [3]): 10 to 50 nM
CDK2 Fold selectivity against CDK1 (CDK1-CYCLIN B; Table 36, fold selectivity for CDK2 over CDK1, recombinant CDK kinases): E (E, <20)
IC50 (CDK4-CYCLIN D1; ADP-Glo, 1000 μM ATP, Table 11): 100 to 500 nM
CDK2 Fold selectivity, CDK4 (CDK4-CYCLIN D1; Table 12): B (B, >100 and ≤500)
IC50 (CDK4-CYCLIN D1; [3]): 10 to 50 nM
CDK2 Fold selectivity against CDK4 (CDK4-CYCLIN D1; Table 36, fold selectivity for CDK2 over CDK4, recombinant CDK kinases): E (E, <20)
IC50 [2]: 2 to 10 nM
IC50 (CDK9-CYCLIN T1; ADP-Glo, 1000 μM ATP, Table 11): 100 to 500 nM
CDK2 Fold selectivity, CDK9 (CDK9-CYCLIN T1; Table 12): A (A, ≥500)
IC50 (CDK9-CYCLIN T1; [3]): 50 to 100 nM
CDK2 Fold selectivity against CDK9 (CDK9-CYCLIN T1; Table 36, fold selectivity for CDK2 over CDK9, recombinant CDK kinases): D (D, >20 and ≤50)

C[C@H]1CCCCc2cc(ccn2)Nc2cc(n[nH]2)[C@H]2CC[C@H](C2)OC(=O)N1 [Compound 114, (1^1S,1^3R,9S,Z)-9-methyl-2^1H-12-oxa-3,10-diaza-4(4,2)-pyridina-2(3,5)-pyrazola-1(1,3)-cyclopentanacyclododecaphan-11-one]
IC50 [1]: 10 to 50 nM
IC50 (CCNE1-normal SKOV3 cells): 250 to 1250 nM
IC50 (CDK2-CYCLIN E1; ADP-Glo, 1000 μM ATP, Table 19): ≤ 10 nM
IC50 (CDK6-CYCLIN D3; ADP-Glo, 1000 μM ATP, Table 19): 100 to 500 nM
CDK2 Fold selectivity, CDK6 (CDK6-CYCLIN D3; Table 20): E (E, <20)
IC50 (CDK1-CYCLIN B; ADP-Glo, 1000 μM ATP, Table 19): 100 to 500 nM
CDK2 Fold selectivity, CDK1 (CDK1-CYCLIN B; Table 20): E (E, <20)
IC50 (CDK4-CYCLIN D1; ADP-Glo, 1000 μM ATP, Table 19): 50 to 100 nM
CDK2 Fold selectivity, CDK4 (CDK4-CYCLIN D1; Table 20): E (E, <20)
IC50 [2]: 10 to 50 nM
IC50 (CDK9-CYCLIN T1; ADP-Glo, 1000 μM ATP, Table 19): 100 to 500 nM
CDK2 Fold selectivity, CDK9 (CDK9-CYCLIN T1; Table 20): D (D, >20 and ≤50)

C[C@@H]1CCCCc2cc(ccn2)Nc2cc(n[nH]2)[C@H]2CC[C@H](C2)OC(=O)N1 [Compound 115, (1^1S,1^3R,9R,Z)-9-methyl-2^1H-12-oxa-3,10-diaza-4(4,2)-pyridina-2(3,5)-pyrazola-1(1,3)-cyclopentanacyclododecaphan-11-one]
IC50 [1]: 10 to 50 nM
IC50 (CCNE1-normal SKOV3 cells): 250 to 1250 nM
IC50 (CDK2-CYCLIN E1; ADP-Glo, 1000 μM ATP, Table 19): 10 to 50 nM
IC50 (CDK6-CYCLIN D3; ADP-Glo, 1000 μM ATP, Table 19): 10 to 50 nM
CDK2 Fold selectivity, CDK6 (CDK6-CYCLIN D3; Table 20): E (E, <20)
IC50 (CDK1-CYCLIN B; ADP-Glo, 1000 μM ATP, Table 19): 50 to 100 nM
CDK2 Fold selectivity, CDK1 (CDK1-CYCLIN B; Table 20): E (E, <20)
IC50 (CDK4-CYCLIN D1; ADP-Glo, 1000 μM ATP, Table 19): 10 to 50 nM
CDK2 Fold selectivity, CDK4 (CDK4-CYCLIN D1; Table 20): E (E, <20)
IC50 [2]: 10 to 50 nM
IC50 (CDK9-CYCLIN T1; ADP-Glo, 1000 μM ATP, Table 19): 100 to 500 nM
CDK2 Fold selectivity, CDK9 (CDK9-CYCLIN T1; Table 20): E (E, <20)
